Assay results from patent US11844794B2, “Pharmaceutical compositions” (ADEPTIO PHARMACEUTICALS LIMITED, priority 2017, dated 2023).

What was measured:
[1] = thermal gravimetric analysis (TGA) / thermal stability
Experimental: Differential scanning calorimetry (DSC) was carried out on the sample “as is” using a Mettler DSC1 instrument. The sample was weighed I an aluminium pan, covered with a pierced lid, and then crimped and analysed from 30-300° C. at 10° C./minute.
Thermal gravimetric analysis was performed on the sample “as is” using a Mettler 851^e TGA instrument. The sample was weighed in an alumina crucible and analysed from 30-300° C. at 10° C./minute.

[2] = plasma concentrations after oral dosing to human volunteers; format: in vivo
Experimental: (+)-α-Dihydrotetrabenazine in amounts was administered by oral dosing to five human volunteers. In four of the volunteers, blood sample were taken at 30, 60, 120 and 180 minutes after drug administration. Blood samples were not taken from the fifth volunteer. At 60 minutes after drug administration, PET scans were initiated and these were stopped at 120 minutes after drug administration. The experiment was carried out at dosages of 7.5 mg, 15 mg and 22.5 mg.

VMAT2 = target: T1, VMAT2 (Homo sapiens, UniProt Q05940); assay: % VMAT2 blocking by PET scan in human volunteers; format: in vivo
T1 construct: from tissue; host or cells: living human volunteers (in vivo PET scan)
T1 sequence (Q05940 whole entry): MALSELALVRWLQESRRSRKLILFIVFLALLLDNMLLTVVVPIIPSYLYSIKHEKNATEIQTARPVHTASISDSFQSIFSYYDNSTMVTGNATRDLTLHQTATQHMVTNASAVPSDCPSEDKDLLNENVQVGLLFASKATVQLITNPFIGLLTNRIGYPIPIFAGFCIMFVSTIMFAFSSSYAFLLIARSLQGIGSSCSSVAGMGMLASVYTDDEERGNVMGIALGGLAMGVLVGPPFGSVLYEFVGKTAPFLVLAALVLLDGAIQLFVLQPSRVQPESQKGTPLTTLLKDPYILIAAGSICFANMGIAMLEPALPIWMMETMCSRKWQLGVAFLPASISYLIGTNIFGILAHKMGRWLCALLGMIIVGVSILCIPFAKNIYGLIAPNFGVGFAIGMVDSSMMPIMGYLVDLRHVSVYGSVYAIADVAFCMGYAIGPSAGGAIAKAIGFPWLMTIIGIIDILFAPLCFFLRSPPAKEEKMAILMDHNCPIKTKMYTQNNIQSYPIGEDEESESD
Text: Complete blocking of the VMAT2 proteins is considered undesirable as this can lead to unwanted side effects, such as Parkinsonism. […] The levels of VMAT2 blocking can be determined by competitive binding studies using Positron Emission Tomography (PET). By co-administering a radioactive ligand with the compound of interest at various concentrations, the proportion of binding sites occupied can be determined (see for example, Matthews et al., “Positron emission tomography molecular imaging for drug development”, Br. J. Clin. Pharmacol., 73:2, 175-186).
In four of the volunteers, blood sample were taken at 30, 60, 120 and 180 minutes after drug administration. Blood samples were not taken from the fifth volunteer. At 60 minutes after drug administration, PET scans were initiated and these were stopped at 120 minutes after drug administration.
The experiment was carried out at dosages of 7.5 mg, 15 mg and 22.5 mg.

[3] = system: non-amphetamine induced rats; assay: locomotor activity in rats without amphetamine induction, open field test; format: in vivo, rat; settings: Study 3, non-induced rats, 2.5 mg/kg or 5 mg/kg
Experimental: All animal experiments were carried out according to the National Institute of Health (NIH) guidelines for the care and use of laboratory animals, and approved by the National Animal Experiment Board, Finland. Male CD (Charles River Laboratories, Germany) at weight range of 200-250 g (165-200 g upon arrival) were used for the experiments. Animals were housed at a standard temperature (22±1° C.) and in a light-controlled environment (lights on from 7 am to 8 pm) with ad libitum access to food and water.
Locomotor activity of the rats was tested in open field arena. The open field test was performed during the rat light cycle and under a normal lighting evenly distributed to the test chambers. The paths of the rats were recorded by activity monitor (Med. Associates Inc.).
Dosing the vehicle, vehicle-amphetamine, (+)-α-DHTBZ or risperidone was done prior to LMA test. The rats were placed in the centre of the arena, and the path was recorded for 60 minutes.
Animals were grouped as follows: • Group 1: 10 rats treated with Vehicle • Group 2: 10 rats treated with (+)-α-DHTBZ 2.5 mg/kg • Group 3: 10 rats treated with (+)-α-DHTBZ 5 mg/kg • Group 4: 10 rats treated with risperidone 1 mg/kg

COc1cc2c(cc1OC)[C@H]1C[C@@H](O)[C@H](CC(C)C)CN1CC2.O=C(O)CCC(=O)O [(+)-α-dihydrotetrabenazine succinate]
TGA weight loss ([1]; below 150° C.): No weight loss
thermal stability ([1]; from DSC and TGA): good thermal stability

COc1cc2c(cc1OC)[C@H]1C[C@@H](O)[C@H](CC(C)C)CN1CC2 [(+)-α-dihydrotetrabenazine, (2R,3R,11bR)-3-isobutyl-9,10-dimethoxy-1,3,4,6,7,11b-hexahydro-2H-pyrido[2,1,a]isoquinolin-2-01]
concentration at 1 h ([2]; human, plasma, subject 1 (112 kg), 7.5 mg oral): 0.94 ng/mL
concentration at 1 h ([2]; human, plasma, subject 1 (112 kg), 22.5 mg oral): 18 ng/mL
concentration at 2 h ([2]; human, plasma, subject 2 (76 kg), 7.5 mg oral): 14 ng/mL
concentration at 0.5 h ([2]; human, plasma, subject 3 (129 kg), 15 mg oral, 0.5 h): 1.2 ng/mL
concentration at 2 h ([2]; human, plasma, subject 3 (129 kg), 15 mg oral): 12 ng/mL
plasma concentration of (+)-α-dihydrotetrabenazine ([2]; subject 1 (112 kg), 7.5 mg oral, 0.5 h, BLQ = below level of quantitation): BLQ
% VMAT2 blocking (VMAT2; heavier individuals, doses as low as 7.5 mg): at least 50%
% VMAT2 blocking (VMAT2; subject 1 (112 kg), 7.5 mg oral, PET 60-120 minutes after administration): 54%
% VMAT2 blocking (VMAT2; subject 1 (112 kg), 15 mg oral, PET 60-120 minutes after administration): 73%
% VMAT2 blocking (VMAT2; subject 1 (112 kg), 22.5 mg oral, PET 60-120 minutes after administration): 75%
% VMAT2 blocking (VMAT2; subject 2 (76 kg), 7.5 mg oral, PET 60-120 minutes after administration): 73%
% VMAT2 blocking (VMAT2; subject 2 (76 kg), 15 mg oral, PET 60-120 minutes after administration): 83%
% VMAT2 blocking (VMAT2; subject 2 (76 kg), 22.5 mg oral, PET 60-120 minutes after administration): 82%
% VMAT2 blocking (VMAT2; subject 3 (129 kg), 7.5 mg oral, PET 60-120 minutes after administration): 62%
% VMAT2 blocking (VMAT2; subject 3 (129 kg), 15 mg oral, PET 60-120 minutes after administration): 69%
% VMAT2 blocking (VMAT2; subject 3 (129 kg), 22.5 mg oral, PET 60-120 minutes after administration): 74%
% VMAT2 blocking (VMAT2; subject 4 (59 kg), 7.5 mg oral, PET 60-120 minutes after administration): 84%
% VMAT2 blocking (VMAT2; subject 4 (59 kg), 15 mg oral, PET 60-120 minutes after administration): 89%
% VMAT2 blocking (VMAT2; subject 5 (91 kg), 7.5 mg oral, PET 60-120 minutes after administration): 73%
% VMAT2 blocking (VMAT2; subject 5 (91 kg), 15 mg oral, PET 60-120 minutes after administration): 79%
% VMAT2 blocking (VMAT2; subject 5 (91 kg), 22.5 mg oral, PET 60-120 minutes after administration): 82%
stereotypic behaviour versus vehicle [3]: comparable
total movement versus vehicle [3]: comparable
